Paper PMC2765805 (Journal of medicinal chemistry, 2009)
Like-named read-outs stand apart in the source and are kept apart here.

How the values were obtained:
[1] = target: T1, human A3 adenosine receptor (Homo sapiens, UniProt P0DMS8); assay: biochemical; parameters: species or system CHO; conditions: read-out: % inhibition
T1 sequence (P0DMS8 1-318): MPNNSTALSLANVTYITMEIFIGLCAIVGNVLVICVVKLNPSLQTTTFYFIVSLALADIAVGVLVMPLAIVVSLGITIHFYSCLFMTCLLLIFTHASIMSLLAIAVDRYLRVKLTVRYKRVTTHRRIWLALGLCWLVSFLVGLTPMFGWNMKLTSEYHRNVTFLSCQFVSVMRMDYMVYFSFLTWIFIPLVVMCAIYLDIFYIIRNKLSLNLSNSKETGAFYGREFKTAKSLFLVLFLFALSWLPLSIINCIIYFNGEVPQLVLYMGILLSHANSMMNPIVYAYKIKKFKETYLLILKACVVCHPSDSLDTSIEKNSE

[2] = target: T1, human A3 adenosine receptor; assay: biochemical; parameters: species or system CHO; conditions: read-out: % inhibition; remark: listed apart in the source

inhibition at 10 µM [1]: 40.5 ± 13.4%
inhibition at 10 µM [2]: 40.5 ± 13.4%
SMILES: Clc1ccc(Nc2nc3ccccc3c3[nH]c(C4CCCCC4)nc23)cc1Cl [compound 3]
